# Measurements from patent US11975044B2, “Methods for treating cancers using fat specific protein 27 (FSP27) compositions” (Ohio University, priority 2017, dated 2024).
# Like-named read-outs stand apart in the source and are kept apart here. Residues, ends and D or L forms follow the SMILES beside them. No end group written: not given here.
# Legend:
# Type in all cases: cell-based
# [1] = tested on: HepG2 human liver cancer (hepatocellular carcinoma) cells; experiment: cells; settings: for efficacy in inhibiting cell viability: human liver cancer, 50 nM; for inhibition of cell viability: human, 100 nM
# Method: (§1) Human cancer cell lines (part of NCI-60 panel of human cancer cells)—SK-MEL-5 (melanoma), SK-MEL-28 (melanoma), MCF-7 (breast cancer), 786-0 (renal cancer), A498 (renal cancer), Hep-G2 (liver cancer), SK-HEP-1 (liver cancer), PANC-1 (pancreatic cancer), and normal human skin fibroblast cells MALME-3 cells were obtained from American Type Culture Collection (ATCC; Manassas, VA). The cells were grown and maintained in corresponding complete growth medium—PANC-1 in DMEM medium (ATCC), 786-0 in RPMI-1640 medium, remaining cell lines in EMEM media (ATCC), and MALME-3 in McCoy's medium (ATCC)—as indicated by ATCC protocols. Complete growth media was supplemented with 10% fetal bovine serum (FBS; ATCC) and 1× antibiotic-antimycotic (Thermo Fisher Scientific, Waltham, MA). MALME-3 cells were grown in McCoy's medium (ATCC) supplemented with 15% FBS and 1× antibiotic-antimycotic. Cells were grown at 37C/5% CO2 in a humidified incubator. Media was replaced every third day.
# (§2) Recombinant hGH was purchased from Antibodies Online (Atlanta, GA), GH antagonist (GHA; Somavert) was obtained from Pfizer (New York City, NY), full length CIDEC was purchased from Abcam (Cambridge, UK) and CIDEC fragment peptides were synthesized at Genscript (Piscataway, NJ). No hGH or GHA was present in the media or added externally unless specifically mentioned. For hGH treatment, 16 hr. after cell seeding (or 24 hr. post-transfection), any GH or GHA or CIDEC or peptides were added at specific concentrations. […]
# (§3) A resazurin based absorption assay was performed measuring cell proliferation, as a measure of inhibition of cell growth/viability. There are several commonly practiced assays using tetrazolium (MTT, MTS, XTT), or resazurin which give a quantitative reflection of cell viability. Although ATP detection assay is the most sensitive of the available options, resazurin-based assay is considered adequate and is routinely used to measure compound EC50s or cell viability following cytotoxic treatments. A stock solution of 1% (w/v) resazurin (Sigma-Aldrich #R7017) in 1×PBS was made and filter-sterilized. The final concentration of resazurin in the assay was 0.004%. Proliferating cells can be quantified by spectrophotometric measurement of a bright pink fluorescent product called resorufin (stable for >4 hr) formed when mildly fluorescent blue resazurin enters a reducing intracellular environment characteristic of proliferating cells. Cells were seeded at 10,000 cells/cm^2 into 96-well plates and transfected as described above. The resazurin assay was performed following the respective treatment periods and resorufin absorbance was measured at 570 nm (reference wavelength=600 nm) using Spectramax250 (Molecular Devices, Sunnyvale, CA) and SoftmaxPro software. In all cases, cells were incubated at 37C/5% CO2 for 1 hr following resazurin addition. The resazurin assay for cell proliferation was used to measure EC-50 of relevant drugs and Graph Pad Prism was used to calculate EC-50 shifts (EC50 shift=EC50 of treated cell line/EC50 of parental cell line.
# (§4) A 1% (w/v) resazurin (Sigma-Aldrich) solution in 1×PBS was made and filter-sterilized. The final concentration of resazurin in the assay was 0.004%. Inside the proliferating cells mildly fluorescent blue resazurin is reduced to a bright pink fluorescent product called resorufin (stable for 4 hr), which is a quantitative measure of the percentage of proliferating cells. In all cases, cells were incubated at 37C/5% CO2 for 45-60 minutes for adequate sensitivity of detection. Briefly, cells were seeded at 10,000 cells/cm^2 into 96-well plates and transfected as described above. The resazurin assay was performed 60 hr after transfection (unless specified otherwise) and resorufin absorbance was measured at 570 nm (reference wavelength=600 nm) using Spectramax250 (Molecular Devices) and SoftmaxPro v4.7.1 software. […]
# [2] = tested on: 786-O human renal cancer (clear cell renal cell carcinoma) cells; settings: for efficacy in inhibiting cell viability: human kidney cancer, 50 nM; for efficacy in inhibiting cell viability / inhibition of cell viability: 48 hr; for inhibition of cell viability: human, 100 nM
# Excerpt: (§5) FIG. 11: Effect of CIDEC and fragment peptides on human renal cancer cell (786-0) viability. [full-length CIDEC, #1, #2, #4, #5, #6=shorter fragment peptides of full-length CIDEC]; Cell: human renal cancer cells; Assay: Cell viability assay (Presto-Blue, Invitrogen); Doses (nM): 0, 50, 100; Treatment period (hr): 48.
# as §1, §2, §3
# as §4, with “above.” for “above. The resazurin assay was performed 60 hr after transfection (unless specified otherwise) and resorufin absorbance was measured at 570 nm (reference wavelength=600 nm) using Spectramax250 (Molecular Devices) and SoftmaxPro v4.7.1 software.”
# [3] = tested on: SK-MEL-28 human melanoma cells; settings: 48 hr; for efficacy in inhibiting cell viability: human melanoma, 50 nM; for inhibition of cell viability: human, 100 nM
# Excerpt: as §5, with “10:” for “11:”, “melanoma” for “renal cancer”, “(SK-MEL-28)” for “(786-0)”, “melanoma cells SK-MEL-28;” for “renal cancer cells;”
# as §1
# as §2, with “mentioned.” for “mentioned. For hGH treatment, 16 hr. after cell seeding (or 24 hr. post-transfection), any GH or GHA or CIDEC or peptides were added at specific concentrations.”
# (§6) A resazurin based absorption assay was performed measuring cell proliferation, as a measure of inhibition of cell growth/viability. There are several commonly practiced assays using tetrazolium (MTT, MTS, XTT), or resazurin which give a quantitative reflection of cell viability. […] Proliferating cells can be quantified by spectrophotometric measurement of a bright pink fluorescent product called resorufin (stable for >4 hr) formed when mildly fluorescent blue resazurin enters a reducing intracellular environment characteristic of proliferating cells. […] The resazurin assay was performed following the respective treatment periods and resorufin absorbance was measured at 570 nm (reference wavelength=600 nm) using Spectramax250 (Molecular Devices, Sunnyvale, CA) and SoftmaxPro software. […]
# A 1% (w/v) resazurin (Sigma-Aldrich) solution in 1×PBS was made and filter-sterilized. […] Inside the proliferating cells mildly fluorescent blue resazurin is reduced to a bright pink fluorescent product called resorufin (stable for 4 hr), which is a quantitative measure of the percentage of proliferating cells. […]
# cells = experiment: Anti-cancer effect of FSP27 segment in cells
# [4] = tested on: PANC-1 human pancreatic ductal adenocarcinoma cells; experiment: Cell viability assay (Presto-Blue / resazurin), PANC-1
# Method: as §1, with “MALME-3 cells were grown in McCoy's medium (ATCC) supplemented with 15% FBS and 1× antibiotic-antimycotic. Cells were grown at 37C/5% CO2 in a humidified incubator. Media was replaced every third day.” left out
# (§7) A resazurin based absorption assay was performed measuring cell proliferation, as a measure of inhibition of cell growth/viability. There are several commonly practiced assays using tetrazolium (MTT, MTS, XTT), or resazurin which give a quantitative reflection of cell viability. […] Proliferating cells can be quantified by spectrophotometric measurement of a bright pink fluorescent product called resorufin (stable for >4 hr) formed when mildly fluorescent blue resazurin enters a reducing intracellular environment characteristic of proliferating cells. […]
# [5] = tested on: MCF-7 human breast cancer cells; experiment: Cell viability assay (Presto-Blue / resazurin), MCF-7
# Method: as §1, with “MALME-3 cells were grown in McCoy's medium (ATCC) supplemented with 15% FBS and 1× antibiotic-antimycotic. Cells were grown at 37C/5% CO2 in a humidified incubator. Media was replaced every third day.” left out
# as §7
# [6] = tested on: human normal fibroblast cells; experiment: Cell viability assay (Presto-Blue / resazurin), normal fibroblasts; settings: exposure to up to 100 nM CIDEC, 24 hr
# Method: FIG. 6: Effect of CIDEC on human normal fibroblast cells; Cell: human normal fibroblast cells; Assay: Cell viability assay (Presto-Blue, Invitrogen); Doses (nM): 0, 50, 100 nM; Treatment period (hr): 24.
# Human cancer cell lines (part of NCI-60 panel of human cancer cells)—SK-MEL-5 (melanoma), SK-MEL-28 (melanoma), MCF-7 (breast cancer), 786-0 (renal cancer), A498 (renal cancer), Hep-G2 (liver cancer), SK-HEP-1 (liver cancer), PANC-1 (pancreatic cancer), and normal human skin fibroblast cells MALME-3 cells were obtained from American Type Culture Collection (ATCC; Manassas, VA). […]
# as §6
# [7] = tested on: SK-MEL-28 human melanoma cells
molecule,measurement,setting,value
CC[C@H](C)[C@H](NC(=O)[C@H](CCCCN)NC(=O)[C@H](CCCCN)NC(=O)[C@H](C)NC(=O)[C@@H]1CCCN1C(=O)[C@H](CCCCN)NC(=O)[C@H](Cc1c[nH]cn1)NC(=O)[C@H](CO)NC(=O)[C@H](CC(C)C)NC(=O)[C@H](CO)NC(=O)[C@H](CC(C)C)NC(=O)[C@@H]1CCCN1C(=O)[C@H](Cc1c[nH]cn1)NC(=O)[C@H](CCCNC(=N)N)NC(=O)[C@@H](NC(=O)CNC(=O)[C@H](CCC(N)=O)NC(=O)[C@H](CCC(=O)O)NC(=O)[C@@H](N)CO)[C@@H](C)O)C(=O)N[C@@H](CC(=O)O)C(=O)N[C@H](C(=O)O)C(C)C [Cf4] (H-SEQGTRHPLSLSHKPAKKIDV-OH; N-terminus and C-terminus assumed),efficacy in inhibiting cell viability,[1]; 48 hr,highly efficacious
same,inhibition of cell viability,[1]; 48 hr,100%
same,efficacy in inhibiting cell viability,[2],highly efficacious
same,inhibition of cell viability,[2],100%
same,efficacy in inhibiting cell viability,[3],highly efficacious
same,inhibition of cell viability,[3],100%
"COc1cccc2c1C(=O)c1c(O)c3c(c(O)c1C2=O)C[C@@](O)(C(=O)CO)C[C@@H]3O[C@H]1C[C@H](N)[C@H](O)[C@H](C)O1 [doxorubicin, reference compound]",EC50,"[1]; Homo sapiens, HepG2, read-out: doxorubicin EC50 for HepG2",190 nM
same,cells killed,"[1]; doxorubicin 300 nM, in absence of CIDEC",> 90%
YDLHCCGAKRIMKEAFRWALFSMQATGHVLLGTSCYLQQLLDATEEGQ (cysteines drawn unpaired) [Cf2],efficacy in inhibiting cell viability,[1]; 48 hr,highly efficacious
same,inhibition of cell viability,[1]; 48 hr,100%
same,efficacy in inhibiting cell viability,[2],highly efficacious
same,inhibition of cell viability,[2],100%
same,efficacy in inhibiting cell viability,[3],highly efficacious
same,inhibition of cell viability,[3],100%
"segment 120-140: segment of FSP27, amino acids 120-140; FIG. 13 discloses SEQ ID NO: 4, so possibly Cf4 (SEQGTRHPLSLSHKPAKKIDV)",efficacy towards anti-cancer effect in cells,cells,maximum efficacy
"CIDEC: human full-length CIDEC (FSP27) protein, purchased from Abcam (protein, UniProt Q96AQ7 1-238, looked up, full-length, human full-length CIDEC (FSP27) protein, purchased from Abcam) MEYAMKSLSLLYPKSLSRHVSVRTSVVTQQLLSEPSPKAPRARPCRVSTADRSVRKGIMAYSLEDLLLKVRDTLMLADKPFFLVLEEDGTTVETEEYFQALAGDTVFMVLQKGQKWQPPSEQGTRHPLSLSHKPAKKIDVARVTFDLYKLNPQDFIGCLNVKATFYDTYSLSYDLHCCGAKRIMKEAFRWALFSMQATGHVLLGTSCYLQQLLDATEEGQPPKGKASSLIPTCLKILQ",effect on efficacy of sorafenib-tosylate against liver cancer,"[1]; 50 nM CIDEC plus anti-cancer drug, 48 hr",significant increase in efficacy
same,EC50,"[1]; HepG2, 0-400 nM CIDEC, read-out: EC50 (dose that causes 50% decrease of cell viability)",65 nM
same,IC50,"[1]; HepG2, 24 hr, doses 0-400 nM, read-out: IC50, sigmoid inhibition curve of cell viability",65 nM
same,decrease in cell viability of liver cancer cells treated with sorafenib-tosylate,"[1]; co-administration of fl-CIDEC with sorafenib-tosylate (1000 nM), 24 hr",2 fold
same,EC50,"[4]; PANC1, 0-400 nM CIDEC",132 nM
same,IC50,"[4]; PANC-1, 24 hr, doses 0-400 nM, read-out: IC50, sigmoid inhibition curve of cell viability",132 nM
same,EC50,"[5]; MCF-7, 0-400 nM CIDEC",187 nM
same,IC50,"[5]; MCF-7, 24 hr, doses 0-400 nM, read-out: IC50, sigmoid inhibition curve of cell viability",187 nM
same,EC50,"[2]; 786-0, up to 400 nM CIDEC, read-out: EC50 (cell viability)",> 400 nM
same,IC50,"[2]; 786-O, 24 hr, doses 0-400 nM, read-out: IC50, sigmoid inhibition curve of cell viability",> 400 nM
same,decrease in cell viability of normal cells,[6],no significant decrease in cell viability
same,improvement of drug effects in human melanoma,"[7]; 50 nM CIDEC plus anti-cancer drugs, 48 hr",did not improve drug effects
same,IC50,"[7]; SK-MEL-28, 24 hr, doses 0-400 nM, read-out: IC50, sigmoid inhibition curve of cell viability",> 400 nM
same,EC50,"[7]; SK-MEL-28, up to 400 nM CIDEC, read-out: EC50 (cell viability)",> 400 nM
same,improvement of cell inhibition rate above that of doxorubicin or vemurafenib,"[7]; co-administration, 24 hr, doxorubicin 300 nM, vemurafenib 50 nM",did not improve the cell inhibition rate
